Reference: article PMC7589200, “Identification of Putative Non-Substrate-Based XT-I Inhibitors by Natural Product Library Screening” (Biomolecules, 2020)
Read-outs that look alike come from different tables or passages of the source.

Assays:
recombinant human XT-I = target: T1, recombinant human XT-I (Homo sapiens, UniProt Q86Y38); assay: NP library inhibitor screening, UPLC/ESI-MS/MS XT-I assay; type: biochemical
T1 sequence (Q86Y38 252-959 limits assumed): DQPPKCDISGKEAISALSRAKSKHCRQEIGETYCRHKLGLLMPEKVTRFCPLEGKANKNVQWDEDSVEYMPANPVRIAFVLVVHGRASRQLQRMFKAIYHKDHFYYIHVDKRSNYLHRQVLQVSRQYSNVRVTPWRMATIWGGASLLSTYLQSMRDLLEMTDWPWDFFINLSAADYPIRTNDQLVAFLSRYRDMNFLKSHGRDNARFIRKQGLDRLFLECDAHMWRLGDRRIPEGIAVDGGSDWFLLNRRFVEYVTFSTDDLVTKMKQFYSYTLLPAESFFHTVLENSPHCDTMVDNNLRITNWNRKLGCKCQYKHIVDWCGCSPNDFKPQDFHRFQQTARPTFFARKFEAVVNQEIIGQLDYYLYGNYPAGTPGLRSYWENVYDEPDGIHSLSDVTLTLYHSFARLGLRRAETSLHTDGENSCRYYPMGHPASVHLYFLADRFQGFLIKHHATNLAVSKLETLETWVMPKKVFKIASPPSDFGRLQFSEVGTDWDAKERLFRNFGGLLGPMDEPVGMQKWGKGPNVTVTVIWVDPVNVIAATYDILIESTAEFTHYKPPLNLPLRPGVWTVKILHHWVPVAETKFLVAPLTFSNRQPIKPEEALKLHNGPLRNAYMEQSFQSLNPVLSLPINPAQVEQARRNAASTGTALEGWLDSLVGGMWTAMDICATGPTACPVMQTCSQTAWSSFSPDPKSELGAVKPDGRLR

XYLT1 mRNA expression = XYLT1 mRNA expression in NHDFs by qRT-PCR; type: cell-based, human; conditions: TGF-β1 5 μg/L, 48 h
Protocol: (§1) A former established cell culture model was utilized to investigate the effect of putative XT-I inhibitors on NHDFs. The inhibition studies were carried out with final inhibitor concentrations of 0.5, 1.0, 2.0 or 4.0 μM diluted in fully supplemented DMEM. In brief, unless otherwise stated, NHDFs were cultivated with a low density of 50 cells per mm^2 on a hard tissue culture substrate (100 × 20 mm dish) in fully supplemented DMEM with or without additional TGF-β1 (5 μg/L) for 24 h, promoting their transdifferentiation into proto-myofibroblasts. Thereafter, cells were treated with celastrol or amphotericin B in the presence or absence of TGF-β1 (5 μg/L) for an additional 48 h. Negative controls treated with solvent only were included for every sampling time. The final DMSO content of 0.04% (v/v) was kept constant in all inhibition experiments. […]
(§2) The RNA extraction from cell lysates and cDNA synthesis for mRNA and miRNA expression analysis were performed as described previously.
(§3) Quantitative real-time polymerase chain reaction (qRT-PCR) analysis using a LightCycler 480 Instrument II system (Roche, Basel, Swiss) was performed as previously described. The qRT-PCR experiments were conducted with three biological and three technical replicates per donor-derived primary cell culture, unless otherwise stated. The intron-spanning primer sequences used are listed in [7] and Table 1. The geometric mean of the expression levels of the housekeeping genes SDHA, RPL13A and B2M were calculated for expression normalization. The relative target gene mRNA expressions were determined by the ΔΔCT method considering the PCR efficiency. All normalized gene expression levels shown were referred to the respective target gene expression of one primary cell culture sample for the relative comparison of multiple biological samples per experiment and figures.

XYLT2 mRNA expression = XYLT2 mRNA expression in NHDFs by qRT-PCR; type: cell-based, human; conditions: TGF-β1 (5 μg/L) supplementation, 48 h
Protocol: (§4) A former established cell culture model was utilized to investigate the effect of putative XT-I inhibitors on NHDFs. The inhibition studies were carried out with final inhibitor concentrations of 0.5, 1.0, 2.0 or 4.0 μM diluted in fully supplemented DMEM. In brief, unless otherwise stated, NHDFs were cultivated with a low density of 50 cells per mm^2 on a hard tissue culture substrate (100 × 20 mm dish) in fully supplemented DMEM with or without additional TGF-β1 (5 μg/L) for 24 h, promoting their transdifferentiation into proto-myofibroblasts. Thereafter, cells were treated with celastrol or amphotericin B in the presence or absence of TGF-β1 (5 μg/L) for an additional 48 h. Negative controls treated with solvent only were included for every sampling time. The final DMSO content of 0.04% (v/v) was kept constant in all inhibition experiments.
as §2, §3

TGFB1 mRNA expression = TGFB1 mRNA expression in NHDFs by qRT-PCR; type: cell-based, human; conditions: TGF-β1 5 μg/L, 48 h
Protocol: as §4, §2
(§5) Quantitative real-time polymerase chain reaction (qRT-PCR) analysis using a LightCycler 480 Instrument II system (Roche, Basel, Swiss) was performed as previously described. […] The geometric mean of the expression levels of the housekeeping genes SDHA, RPL13A and B2M were calculated for expression normalization. The relative target gene mRNA expressions were determined by the ΔΔCT method considering the PCR efficiency. […]

SMAD7 mRNA expression = SMAD7 mRNA expression in NHDFs by qRT-PCR; type: cell-based, human; conditions: TGF-β1 5 μg/L, 48 h
Protocol: as §1, §5

miRNA-21 = miRNA-21 expression in NHDFs, TaqMan advanced miRNA assay; type: cell-based, human; conditions: TGF-β1 5 µg/L, 48 h, serum-starved NHDFs
Protocol: as §2
The TaqMan advanced miRNA Assay (Thermo Fisher Scientific; Waltham, Massachusetts, United States) was performed, according to the manufacturer’s instructions, for the miRNA expression analyses. The primer assays miRNA-21 (477975_mir) and miRNA-191 (477952_mir) were used. The expression level of miRNA-21 determined was normalized to internal housekeeping gene expression of miRNA-191 via the ΔΔCT method.

[1] = Table S1, 50 μM inhibitor, relative to negative control containing DMSO, technical duplicates

COc1cc(CNC(=O)CCCC/C=C/C(C)C)ccc1O [Compound 94, Capsaicin (Vanilloid)]
XT-I Activity [%] (recombinant human XT-I): 135%

C[C@@H]1C(=O)O[C@H]2C[C@@]34[C@H]5C[C@@H](C(C)(C)C)[C@]36[C@@H](OC(=O)[C@@H]6O)O[C@@]4(C(=O)O5)[C@]21O [Compound 95, Ginkgolide A]
remaining activity at 50 µM (recombinant human XT-I; [1]): 150%

Bleomycin sulfate [Compound 96]
XT-I Activity [%] (recombinant human XT-I; [1]): 149%

Ginkgolide B [Compound 69]
XT-I Activity [%] (recombinant human XT-I; [1]): 100%

Oxytetracycline (Terramycin) [Compound 74]
XT-I Activity [%] (recombinant human XT-I; Table 2, 50 μM inhibitor, relative to control (DMSO = 100%), technical duplicates): 17% | XT-I Activity [%] (recombinant human XT-I; [1]): 17%

TGF-β1: Recombinant human TGF-β1, pro-fibrotic mediator used to stimulate fibroblasts
increase in XYLT1 mRNA expression relative to untreated control (XYLT1 mRNA expression; Figure 5A–D): 3.7 ± 0.3 fold | increase in XYLT1 mRNA expression relative to untreated control (XYLT1 mRNA expression; Figure 5E): 4.6 ± 0.2 fold | XYLT2 mRNA expression level (XYLT2 mRNA expression): unaffected | TGFB1 mRNA expression (autoinduction) relative to control (TGFB1 mRNA expression): 1.1 ± 0.08 fold | SMAD7 mRNA expression relative to control (SMAD7 mRNA expression): 1.8 ± 0.2 fold | miRNA-21 expression relative to untreated (miRNA-21): 2.5 ± 0.2 fold

Vitamin B12 [Compound 65]
XT-I Activity [%] (recombinant human XT-I; [1]): 94%
